Source: patent US20250304623A1, “PEPTIDES FOR INTRACELLULAR DELIVERY” (UNIVERSIDADE DE SANTIAGO DE COMPOSTELA, priority 2022, published 2025)
Starred links: 1 amine or outer side, 2 acyl side, 3 side chain; linkers in the order of their positions; H or OH if unused. Residues, ends and D or L forms follow the SMILES beside them. Groups on a side chain read outwards from the residue. *: point of attachment. Glutaryl = O=C(CCCC(=O)[*:2])[*:1]; X1 = CCCC/C=C\CCCCCCCC=NN*; NHNH2 = NN*

Columns and labels:
Assay type in all cases: cell-based
HCT116 cells = assay: EGFP mRNA delivery, robotic library screening, HCT116
Protocol: Cells were seeded in a 96 well plate the day before the experiment at a concentration of 50,000 cell/mL (100 μL/w) in DMEM+10% FBS+1% Gln-Abt. For robotic library screening, the delivery of EGFP-mRNA (from TriLink, fully substituted with 5-methoxyuridine, capped and polyadenylated; TriLink, CleanCap® EGFP mRNA (5moU), ref. L-7201) in six different cell lines was performed. Amphiphilic molecule stock solutions were prepared in DMSO as described above and diluted in DMEM to afford a range of concentrations. The solutions of EGFP-mRNA/amphiphilic molecule complexes were freshly prepared prior to the transfection experiments. 35 μL of the corresponding amphiphile were added to 10 μL of a solution of EGFP-mRNA at 10 ng/μL in DMEM. The mixture was shaken for 30 min at room temperature before the addition to the cells. The cell medium was aspirated, and cells were washed with PBS twice. Cells were covered with 39 μL of DMEM and 11 μL of the complex's solution were added to the cells and incubated for 4 h (final concentration of peptide=2.5, 5 and 10 μM; final concentration of EGFP-mRNA=25 ng/well). After the incubation, the medium was replaced by 100 μL of fresh DMEM supplemented with 10% FBS. The total EGFP fluorescence was quantified after 72 h in a well plate reader. Amphiphile transfection efficiency was compared and normalized to Lipofectamine® MessengerMax efficiency (value of 1 in Tables 1-5 and 7; double underlined numbers). All experiments were done in triplicate.
(§1) Tables 1-7: RLuc (pDNA) or EGFP (mRNA) expression levels were normalized to Lipofectamine reagents (value=1) and expressed as fold-times signal increase. In the case of siRNA, the siRNA treated cells fluorescence was compared with siMOCK control fluorescence, while Cas9-RNP mediated knockout was measured against the fluorescence of untreated cells. In both siRNA and Cas9-RNP, values are expressed as % fluorescence reduction. Amphiphile concentration was 5 μM in all cases. All experiments were performed in triplicate.
Tables 14-19 show the mean (triplicates) fluorescence intensity measured after the transfection of EGFP mRNA by different amphiphiles at different concentrations in a variety of cell lines. Background fluorescence values, accounted by untreated control cells, were subtracted for processing.

[1] = test system: HepG2 cells expressing EGFP; assay: EGFP-targeting siRNA delivery (GFP silencing vs siMOCK), HepG2
Protocol: To generate an EGFP expressing HeLa cell line, HeLa cells were transfected with EGFP pDNA (pEGFP-C1, Clontech) and stable transfectants were selected with 400 μg/mL of G-418 (Millipore). Green clones were selected by epifluorescence microscopy and tested for EGFP expression stability through several passages. […] All other EGFP-expressing cell lines were obtained in a similar way from parent non-EGFP-expressing cell lines.
Cells expressing EGFP were seeded in a 96 well plate the day before the experiment at a concentration of 50,000 cell/mL (100 μL/w) in DMEM+10% FBS+1% Gln-Abt. For robotic library screening, the delivery of an EGFP-targeting siRNA (EGFP: enhanced green fluorescent protein, Ambion® Silencer® GFP Positive Control siRNA (siGFP) (AM4626)) in six different cell lines expressing EGFP was performed. […] The mixture was shaken for 30 min at room temperature (rt) before the addition to the cells. The cell medium was aspirated, and cells were washed twice with PBS. Finally, 50 μL of the solution of siRNA/amphiphile complexes were added to the cells and incubated for 4 h. After transfection, the medium was replaced by 100 μL of fresh DMEM supplemented with 10% FBS. The fluorescence knockdown was quantified after 72 h in a plate reader, by comparison with cells transfected with a non-targeting siRNA control (siMOCK, Silencer™ Negative Control No. 1 siRNA (siMOCK) (AM4611)). EGFP knockdown was compared with Lipofectamine® RNAiMAX silencing efficiency (30-60% depending on cell line, defined with a numeric value in the below tables). All experiments were done in triplicate.
as §1
Tables 20-25 show the mean (triplicates) percentage of GFP-silencing, accounted by fluorescence intensity decrease relative to a non-targeting siRNA (siMOCK) control, measured after the transfection of siRNA by different amphiphiles at different concentrations in a variety of cell lines. Background values, accounted by untreated control cells, were subtracted for processing.

HeLa-EGFP cells = assay: Cas9 ribonucleoprotein delivery, flow cytometry of EGFP negative cells
Protocol: FIG. 2 Percentage of editing (in bars, left axis) in HeLa-EGFP cells incubated with Cas9 ribonucleoprotein with an EGFP-targeting gRNA using the amphiphiles comprising 7.3(Leu-His) peptide with myristoleyl, palmitoleyl or petroselinyl aldehydes. After 3 days, EGFP negative cells (bars; left axis) and cell concentration (dots; right axis) were quantified by flow cytometry. ([Cas9]=50 nM, amphiphiles concentration in μM).
The inventors evaluated the intracellular delivery of Cas9 ribonucleoprotein with a gRNA targeting EGFP into HeLa-EGFP cells, using an amphiphilic molecule comprising peptide 7.3(Leu-His) combined with myristoleyl, palmitoleyl or petroselinyl aldehydes. After 3 days, EGFP negative cells were quantified by flow cytometry.

[2] = test system: chicken embryo fibroblasts (CEF); assay: EGFP pDNA transfection in primary chicken embryo fibroblasts
Excerpt: FIG. 5 EGFP pDNA transfection efficacy (% GFP-positive cells) with amphiphile comprising 7.3(Leu-His) peptide and myristoleyl aldehyde (7.3(L-H) M) at different concentrations, compared with Lipofectamine 2000 (LF) and TransIT-LT1 Transfection Reagent (Mirus) in CEF (chicken embryo fibroblasts).
The amphiphile obtained by combining the peptide 7.3(Leu-His) with myristoleyl aldehyde (7.3(Leu-His) M) was used to deliver EGFP pDNA in primary chicken embryo fibroblasts (CEF, obtained from 9-10 day-old chicken embryos), which are non-immortal cells difficult to transfect. The transfection efficiency of amphiphile 7.3(Leu-His) M was compared to that of Lipofectamine® 2000 (LF) and TransIT-LT1 Transfection Reagent (Mirus).

Compound | mean fluorescence intensity (EGFP mRNA) (HCT116 cells; Myristoleyl, 2.5 μM) | mean fluorescence intensity (EGFP mRNA) (HCT116 cells; Petroselinyl, 2.5 μM) | mean fluorescence intensity (EGFP mRNA) (HCT116 cells; Petroselinyl, 5 μM) | mean fluorescence intensity (EGFP mRNA) (HCT116 cells; Petroselinyl, 10 μM) | percentage of GFP-silencing relative to siMOCK ([1]; Myristoleyl, 15 μM) [%] | percentage of GFP-silencing relative to siMOCK ([1]; Oleyl, 10 μM) [%] | percentage of GFP-silencing relative to siMOCK ([1]; Palmitoleyl, 15 μM) [%] | percentage of GFP-silencing relative to siMOCK ([1]; Petroselinyl, 15 μM) [%] | mean fluorescence intensity (EGFP mRNA) (HCT116 cells; Dodecanal, 5 μM) | percentage of GFP-silencing relative to siMOCK ([1]; Myristoleyl, 5 μM) [%] | percentage of GFP-silencing relative to siMOCK ([1]; Palmitoleyl, 5 μM) [%] | percentage of GFP-silencing relative to siMOCK ([1]; Dodecanal, 15 μM) [%] | percentage of GFP-silencing relative to siMOCK ([1]; Petroselinyl, 10 μM) [%] | other results
CC(=O)N[C@@H](CCCNC(=N)N)C(=O)N[C@@H](CCCCNC(=O)CCCC(=O)NN)C(=O)N[C@@H](Cc1c[nH]cn1)C(=O)N[C@@H](CCCNC(=N)N)C(=O)N[C@@H](CCCCNC(=O)CCCC(=O)NN)C(=O)N[C@@H](CCCCNC(=O)CCCC(=O)NN)C(=O)N[C@@H](Cc1c[nH]cn1)C(N)=O [7.3(L-H), Ac-RK*HRK*K*H-NH2] (Ac-RK([Glutaryl-NHNH2])HRK([Glutaryl-NHNH2])K([Glutaryl-NHNH2])H-NH2) | 76926 | 5653 | 19656 | 9118 | −13 | −9 | 10 | 1 |  |  |  |  |  | mean fluorescence intensity (EGFP mRNA) (HCT116 cells; Myristoleyl, 5 μM): 19128; mean fluorescence intensity (EGFP mRNA) (HCT116 cells; Palmitoleyl, 2.5 μM): 32455; mean fluorescence intensity (EGFP mRNA) (HCT116 cells; Palmitoleyl, 5 μM): 26406; mean fluorescence intensity (EGFP mRNA) (HCT116 cells; Palmitoleyl, 10 μM): 6504; % of editing (EGFP negative cells) (HeLa-EGFP cells; Cas9 50 nM, flow cytometry after 3 days, amphiphile tails myristoleyl or palmitoleyl): 70%; concentration of cells relative to Lipofectamine (HeLa-EGFP cells; after 3 days, myristoleyl or palmitoleyl aldehydes, on average): three times higher
CCCC/C=C\CCCCCCCC=NNC(=O)CCCC(=O)NCCCC[C@H](NC(=O)[C@H](CCCCNC(=O)CCCC(=O)NN=CCCCCCCC/C=C\CCCC)NC(=O)[C@H](CCCNC(=N)N)NC(=O)[C@H](Cc1c[nH]cn1)NC(=O)[C@H](CCCCNC(=O)CCCC(=O)NN=CCCCCCCC/C=C\CCCC)NC(=O)[C@H](CCCNC(=N)N)NC(C)=O)C(=O)N[C@@H](Cc1c[nH]cn1)C(N)=O [7.3(Leu-His) M] (Ac-RK([Glutaryl-X1])HRK([Glutaryl-X1])K([Glutaryl-X1])H-NH2) |  |  |  |  |  |  |  |  |  |  |  |  |  | transfection efficiency relative to Lipofectamine 2000 (LF) [2]: two times better; transfection efficiency relative to TransIT-LT1 Transfection Reagent (Mirus) [2]: up to five times better
Ac-RK*LRRK*LRK*-NH2 (Ac-RK(NHNH2)LRRK(NHNH2)LRK(NHNH2)-NH2; not fully specified; printed as Ac-RK*LRRK*LRK*-NH2; also: K*2,K*6,K*9: native or modified lysine (ε-amide to a linker)) [Peptide 9.3] | 2151 |  | 919 | 1252 | 6 | −9 | −2 | −3 | 526 | −11 | −2 |  |  | mean fluorescence intensity (EGFP mRNA) (HCT116 cells; Oleyl, 2.5 μM): 1067; mean fluorescence intensity (EGFP mRNA) (HCT116 cells; Oleyl, 5 μM): 910; mean fluorescence intensity (EGFP mRNA) (HCT116 cells; Oleyl, 10 μM): 1044
Ac-RK*LRRLLRK*-NH2 (Ac-RK(NHNH2)LRRLLRK(NHNH2)-NH2; not fully specified; printed as Ac-RK*LRRLLRK*-NH2; also: K*2,K*9: native or modified lysine (ε-amide to a linker)) [Peptide 9.2] | 1498 |  | 662 |  | −22 |  |  |  | 438 | −22 |  |  |  | 
Ac-RRHK*RLK*RRLK*RL-NH2 (Ac-RRHK(NHNH2)RLK(NHNH2)RRLK(NHNH2)RL-NH2; not fully specified; printed as Ac-RRHK*RLK*RRLK*RL-NH2; also: K*4,K*7,K*11: native or modified lysine (ε-amide to a linker)) [13(Leu-His)] | 2385 |  | 428 | 149 |  |  | 25 | 6 |  |  |  | 27 | 25 | mean fluorescence intensity (EGFP mRNA) (HCT116 cells; Palmitoleyl, 5 μM): 642; percentage of GFP-silencing relative to siMOCK ([1]; Myristoleyl, 10 μM): −3%; percentage of GFP-silencing relative to siMOCK ([1]; Palmitoleyl, 10 μM): 12%
Ac-RRLK*RLK*RRLK*RL-NH2 [Peptide 13.3] | 2744 | 1178 | 1100 | 824 |  |  | 10 | 8 |  | 13 | 19 | 33 | 41 | mean fluorescence intensity (EGFP mRNA) (HCT116 cells; Palmitoleyl, 2.5 μM): 1623; percentage of GFP-silencing relative to siMOCK ([1]; Dodecanal, 10 μM): 31%; percentage of GFP-silencing relative to siMOCK ([1]; Myristoleyl, 10 μM): 20%; percentage of GFP-silencing relative to siMOCK ([1]; Palmitoleyl, 10 μM): 46%; percentage of GFP-silencing relative to siMOCK ([1]; Petroselinyl, 5 μM): 9%
Ac-RRLK*RLLRRLK*RLK*RRL-NH2 (Ac-RRLK(NHNH2)RLLRRLK(NHNH2)RLK(NHNH2)RRL-NH2; not fully specified; printed as Ac-RRLK*RLLRRLK*RLK*RRL-NH2; also: K*4,K*11,K*14: native or modified lysine (ε-amide to a linker)) [Peptide 17.3] | 570 | 373 | 168 | 66 | −18 | 8 | −2 |  | 130 |  | 4 | −4 | 5 | mean fluorescence intensity (EGFP mRNA) (HCT116 cells; Dodecanal, 10 μM): 312; mean fluorescence intensity (EGFP mRNA) (HCT116 cells; Myristoleyl, 5 μM): 247; percentage of GFP-silencing relative to siMOCK ([1]; Dodecanal, 5 μM): 13%; percentage of GFP-silencing relative to siMOCK ([1]; Dodecanal, 10 μM): 18%; percentage of GFP-silencing relative to siMOCK ([1]; Petroselinyl, 5 μM): −11%
